In patent US20220249599A1, “TREATMENT OF IMPLANTS WITH ENGINEERED ANTIMICROBIAL AMPHIPHILIC PEPTIDES” (priority 2018, published 2022):
Converted amounts (≈) assume the structure as drawn. “And” between values parts separate entries of the source, which are not always exact repeats. Identical values can stand only once. Like-named read-outs stand apart in the source and are kept apart here. Bridge positions count the residues as written; N and C are the ends. Square brackets hold non-standard residues; d marks the D form. Ends that are not written are not given here. Peptide text beside a SMILES is read from it. * marks the point of attachment. X1 = CC[C@H](C)CCCCC(=O)*; Dab = NCC[C@H](N)C(=O)O

What was measured:
[1] = tested on: S. aureus strain SH1000 biofilms; assay: In vitro biofilm disruption on stainless steel rods; assay type: cell-based; settings: S. aureus SH1000, 10×MIC, up to 24 hours
Text: FIG. 15 depicts the effect of administration of SEQ ID NO:1 and cefazolin on biofilm maintenance. […] SEQ ID NO:1 eliminated mature implant biofilms on a model strain of S. aureus, SH1000.

S. aureus = assay: Periprosthetic joint infection mouse model, implant biofilm CFU burden; assay type: in vivo; settings: intraperitoneal delivery, versus untreated control mice
Description: Periprosthetic joint infection was modeled in a mouse by placing an intra-articular K-wire through the medullary canal of the proximal femur followed by intra-articular inoculation with S. aureus. Animals were treated systemically with an intraperitoneal delivery of cefazolin, rifampin, or the exemplary peptide of SEQ ID NO:1. Intraperitoneal delivery was chosen due to technical difficulties associated with intravenous delivery. Implant sonication and proximal femur homogenate were used to quantify viable bacteria.

[2] = tested on: Acinetobacter baumannii ATCC 19606 (non-MDR); assay type: cell-based; settings: Acinetobacter baumannii ATCC 19606 (non-MDR)
Description: (§1) Each peptide was formulated in PBS buffer prior to testing. Peptides of SEQ ID NO:5 and SEQ ID NO:8 were brought up in 100% DMSO with 0.002% polysorbate-80 at 1.28 mg/mL (40× the highest final test concentration of 32 mcg/mL). Final test concentration of DMSO was 2.5% in the assay at the first dilution for those two compounds.
(§2) Mueller Hinton II broth (MHB II; BD; Lot Nos. 6258541 and 7143896) was used for MIC testing of aerobic organisms. 0.002% polysorbate 80 (P80) was added to the test medium.
(§3) MIC values were determined using a broth microdilution procedure described by CLSI (1, 3). Automated liquid handlers (Multidrop 384, Labsystems, Helsinki, Finland; Biomek 2000 and Biomek FX, Beckman Coulter, Fullerton Calif.) were used to conduct serial dilutions and liquid transfers.
(§4) To prepare the drug mother plates, which would provide the serial peptide dilutions for the replicate daughter plates, the wells of columns 2-12 of standard 96-well microdilution plates (Costar 3795) were filled with 150 µl of the designated diluent for each row of peptide.
(§5) The test articles and comparator compounds ([…] at 40× the highest concentration to be tested) were dispensed into the appropriate wells in column 1. The Biomek 2000 was then used to make 2-fold serial dilutions in the mother plates from column 1 through column 11. The wells of Column 12 contained no drug and served as the organism growth control wells for the assay.
(§6) The daughter plates were loaded with 185 μL per well of MHB II using the Multidrop 384. The daughter plates were completed on the Biomek FX instrument which transferred 5 uL of peptide solution from each well of a mother plate to the corresponding well of each daughter plate in a single step. A standardized inoculum of each test organism was prepared per CLSI methods. The inoculum for each organism was dispensed into sterile reservoirs divided by length (Beckman Coulter), and the Biomek 2000 was used to inoculate the plates. Daughter plates were placed on the Biomek 2000 work surface in reverse orientation so that inoculation took place from low to high drug concentration.
(§7) Plates were stacked 3-4 high, covered with a lid on the top plate, placed in plastic bags, and incubated at 35° C. for 16 to 20 hrs. Following incubation, the microplates were removed from the incubator and viewed from the bottom using a plate viewer. […] The MIC was read and recorded as the lowest concentration of peptide that inhibited visible growth of the organism.

[3] = tested on: Enterococcus faecalis ATCC 29212 (VSE; QC); assay type: cell-based; settings: Enterococcus faecalis ATCC 29212 (VSE; QC)
Description: as §1, §2, §3, §4, §5, §6, §7

[4] = tested on: Enterococcus faecalis ATCC 700802 (V583 VRE); assay type: cell-based; settings: Enterococcus faecalis ATCC 700802 (V583 VRE)
Description: as §1, §2, §3, §4, §5, §6, §7

[5] = tested on: Enterococcus faecium ATCC 51559 (VRE); assay type: cell-based; settings: Enterococcus faecium ATCC 51559 (VRE)
Description: as §1, §2, §3, §4, §5, §6, §7

[6] = tested on: Escherichia coli ATCC 25922 (QC); assay type: cell-based; settings: Escherichia coli ATCC 25922 (QC)
Description: as §1, §2, §3, §4, §5, §6, §7

[7] = tested on: Escherichia coli ATCC 35218 (ESBL); assay type: cell-based; settings: Escherichia coli ATCC 35218 (ESBL)
Description: as §1, §2, §3, §4, §5, §6, §7

[8] = tested on: Escherichia coli ATCC BAA-2471 (NDM-1); assay type: cell-based; settings: Escherichia coli ATCC BAA-2471 (NDM-1)
Description: as §1, §2, §3, §4, §5, §6, §7

[9] = tested on: Klebsiella pneumoniae ATCC BAA-1705 (KPC); assay type: cell-based; settings: Klebsiella pneumoniae ATCC BAA-1705 (KPC)
Description: as §1, §2, §3, §4, §5, §6, §7

[10] = tested on: Pseudomonas aeruginosa ATCC 27853 (non-MDR; QC); assay type: cell-based; settings: Pseudomonas aeruginosa ATCC 27853 (non-MDR; QC)
Description: as §1, §2, §3, §4, §5, §6, §7

[11] = tested on: Pseudomonas aeruginosa ATCC BAA-2109 (MDR); assay type: cell-based; settings: Pseudomonas aeruginosa ATCC BAA-2109 (MDR)
Description: as §1, §2, §3, §4, §5, §6, §7

[12] = tested on: Staphylococcus aureus ATCC 29213 (MSSA; QC); assay type: cell-based; settings: Staphylococcus aureus ATCC 29213 (MSSA; QC)
Description: as §1, §2, §3, §4, §5, §6, §7

[13] = tested on: Staphylococcus aureus ATCC 43300 (MRSA); assay type: cell-based; settings: Staphylococcus aureus ATCC 43300 (MRSA)
Description: as §1, §2, §3, §4, §5, §6, §7

[14] = tested on: Staphylococcus aureus NRS382 (USA100; HA-MRSA); assay type: cell-based; settings: Staphylococcus aureus NRS382 (USA100; HA-MRSA)
Description: as §1, §2, §3, §4, §5, §6, §7

[15] = tested on: Streptococcus agalactiae ATCC 13813; assay type: cell-based
Description: as §1, §2, §3, §4, §5, §6, §7

[16] = tested on: Streptococcus pneumoniae ATCC 49619 (QC); assay type: cell-based; settings: Streptococcus pneumoniae ATCC 49619 (QC)
Description: as §1, §2, §3, §4, §5, §6, §7

[17] = tested on: Streptococcus pyogenes ATCC 49399; assay type: cell-based; settings: Streptococcus pyogenes ATCC 49399
Description: as §1, §2, §3, §4, §5, §6, §7

[18] = tested on: Acinetobacter baumannii ATCC BAA-1797 (MDR); assay: microbe, parasite or virus in culture; assay type: cell-based; settings: Acinetobacter baumannii ATCC BAA-1797 (MDR)
Description: as §1, §2, §3, §4, §5, §6, §7

[19] = tested on: Acinetobacter spp. (n = 104); assay type: cell-based; settings: Acinetobacter spp. (n = 104); for % R (isolates resistant): CLSI breakpoints
Description: (§8) The clinical isolates were obtained from USA hospitals. […] Plates were incubated at 35° C. overnight.

[20] = tested on: Escherichia coli (n = 101); assay type: cell-based; settings: Escherichia coli (n = 101); for % R (isolates resistant): CLSI breakpoints, colistin EUCAST
Description: as §8

[21] = tested on: Klebsiella pneumoniae (n = 101); assay type: cell-based; settings: Klebsiella pneumoniae (n = 101); for % R (isolates resistant): CLSI breakpoints, colistin EUCAST
Description: as §8

[22] = tested on: Pseudomonas aeruginosa (n = 109); assay type: cell-based; settings: Pseudomonas aeruginosa (n = 109); for % R (isolates resistant): CLSI breakpoints
Description: as §8

[23] = tested on: Enterobacter spp. (n = 102); assay type: cell-based, Enterobacter aerogenes and E. cloacae; settings: Enterobacter spp. (n = 102); for % R (isolates resistant): CLSI breakpoints, colistin EUCAST
Description: as §8

[24] = tested on: P. aeruginosa strains (PAO1 and 2 clinical isolates); assay type: cell-based; settings: three P. aeruginosa strains, 0.5×MIC exposure
Text: Each antibiotic was compared for their propensity to select for bacterial resistance phenotypes in vitro.

[25] = tested on: Escherichia coli ATCC 25922 (QC); settings: cited from earlier work
[26] = tested on: Pseudomonas aeruginosa ATCC 27853 (non-MDR; QC); settings: cited from earlier work
[27] = tested on: Staphylococcus aureus ATCC 29213 (MSSA; QC); settings: cited from earlier work
[28] = tested on: Streptococcus pneumoniae ATCC 49619 (QC); settings: cited from earlier work
[29] = tested on: Enterococcus faecalis ATCC 29212 (VSE; QC); settings: cited from earlier work
[30] = macaques, 1.0 mg/kg, 30 min IV infusion, one line per individual monkey (4000, 4001, 4002)
Description: Animals will be obtained from the Test Facility's colony of adult male cynomolgous monkeys (Macaca fascicularis) of Chinese origin. Animals will be weighed prior to dosing.
Intravenous administration will be via 30 minute infusion into a temporary percutaneous catheter placed into a saphenous vein. Prior to and following dose administration, the catheter will be flushed with 0.5 mL saline prior to removal. All dosing syringes will be weighed prior to and following dosing.
Serial blood samples will be collected via femoral vein (cephalic or saphenous, as necessary). Approximately 1 mL blood samples will be collected into K2EDTA tubes.
Blood samples will be collected into K2EDTA tubes and stored on wet ice. Whole blood will be processed to plasma by centrifugation (2400-2700 rpm at 5° C.) within 30 minutes of collection. Plasma samples will be split into 2 equal aliquots and stored at −80° C. until analysis.
The peptide will be purified from plasma samples from each macaque using a cation exchange-based solid-phase extraction process. Prior to extraction, a known concentration of a mass-adjusted internal standard (IS) will be added to assess recovery and allow for quantitation. Purified samples will be further subjected to high-performance liquid chromatography (HPLC) using C18 300 or 130 angstrom columns prior to MS/MS analysis. Multiple charge states will be observed by MS, so MS/MS will be employed to enable multiple reaction monitoring (MRM) analyses to determine the most MRM transitions with the highest signal-to-noise gain. Compound plasma concentrations will be determined by comparing to and compensating with co-purified IS peak intensity and validated calibrated standard curves.
Toxicokinetic parameters will be calculated using non-compartmental methods as implemented in the Phoenix® WinNonlin® ver. 6.3 comprehensive TK/PK analysis software program (Pharsight Corporation; Mountain View, Calif.) using an IV infusion model. […] Values below the lower limit of quantitation (BLQ) will be assigned a value of zero for the toxicokinetic calculations. […]

Cc1nnc(SCC2=C(C(=O)O)N3C(=O)[C@@H](NC(=O)Cn4cnnn4)[C@H]3SC2)s1 [Cefazolin, cefazolin]
Reduction of mature biofilm on stainless steel rods [1]: did not achieve a three-log reduction | Reduction of implant biofilm CFU burden (sonicate culture) (S. aureus): one log reduction in viable bacteria as compared to untreated controls, but this reduction was not statistically significant

CC[C@H](C)CCCCC(=O)N[C@@H](CCN)C(=O)N[C@H](C(=O)N[C@@H](CCN)C(=O)N[C@H]1CCNC(=O)[C@H]([C@@H](C)O)NC(=O)[C@H](CCN)NC(=O)[C@H](CCN)NC(=O)[C@H](CC(C)C)NC(=O)[C@@H](CC(C)C)NC(=O)[C@H](CCN)NC1=O)[C@@H](C)O [Colistin, reference compound] (X1-[Dab]T[Dab][Dab][Dab][dL]L[Dab][Dab]T; lactam 4-C)
MIC [2]: 0.25 µg/mL (≈ 0.214 µM) | MIC [3]: >32 µg/mL | MIC [4]: >32 µg/mL | MIC [5]: >32 µg/mL | MIC [6]: 0.12 µg/mL (≈ 0.103 µM) | MIC [7]: 0.12 µg/mL (≈ 0.103 µM) | MIC [8]: 0.06 µg/mL (≈ 0.0513 µM) | MIC [9]: 0.12 µg/mL (≈ 0.103 µM) | MIC [10]: 0.25 µg/mL (≈ 0.214 µM) | MIC [11]: 0.12 µg/mL (≈ 0.103 µM) | MIC [12]: >32 µg/mL | MIC [13]: >32 µg/mL | MIC [14]: >32 µg/mL | MIC [15]: >32 µg/mL | MIC [16]: >32 µg/mL | MIC [17]: >32 µg/mL | MIC [18]: 0.5 µg/mL (≈ 0.428 µM) | MIC50 [19]: 0.25 µg/mL (≈ 0.214 µM) | MIC90 [19]: >32 µg/mL | Mode (MIC) [19]: 0.25 µg/mL | % R (isolates resistant) [19]: 20.2% | MIC50 [20]: 0.12 µg/mL (≈ 0.103 µM) | MIC90 [20]: 0.12 µg/mL (≈ 0.103 µM) | MIC range [20]: ≤0.03 to 0.5 µg/mL | Mode (MIC) [20]: 0.12 µg/mL | % R (isolates resistant) [20]: 0% | MIC50 [21]: 0.12 µg/mL (≈ 0.103 µM) | MIC90 [21]: 32 µg/mL (≈ 27.4 µM) | Mode (MIC) [21]: 0.12 µg/mL | % R (isolates resistant) [21]: 27.7% | MIC50 [22]: 0.5 µg/mL (≈ 0.428 µM) | MIC90 [22]: 1 µg/mL (≈ 0.855 µM) | Mode (MIC) [22]: 0.5 µg/mL | % R (isolates resistant) [22]: 7.3% | MIC50 [23]: 0.12 µg/mL (≈ 0.103 µM) | MIC90 [23]: 0.25 µg/mL (≈ 0.214 µM) | Mode (MIC) [23]: 0.12 µg/mL | % R (isolates resistant) [23]: 5.8% | Time to development of resistance (fold MIC>10) [24]: 13 days | MIC range in parentheses below the MIC (QC range) [25]: (0.25-2) μg/mL | MIC range in parentheses below the MIC (QC range) [26]: (0.5-4) μg/mL

C[C@@H](O)[C@H]1C(=O)N2C(C(=O)O)=C(S[C@@H]3CN[C@H](C(=O)N(C)C)C3)[C@H](C)[C@H]12 [Meropenem]
MIC ([18]; ATCCBAA1797, read-out: MIC): > 4 µg/mL | % R (isolates resistant) [19]: 65.4% | % R (isolates resistant) [20]: 1% | % R (isolates resistant) [21]: 50.5% | % R (isolates resistant) [22]: 20.2% | % R (isolates resistant) ([22]; listed as meropenem): 20% | % R (isolates resistant) [23]: 3.9% | MIC range in parentheses below the MIC (QC range) [27]: (0.03-0.12) μg/mL | MIC range in parentheses below the MIC (QC range) [28]: (0.03-0.25) μg/mL | MIC range in parentheses below the MIC (QC range) [29]: (2-8) μg/mL | MIC range in parentheses below the MIC (QC range) [25]: (0.008-0.06) μg/mL | MIC range in parentheses below the MIC (QC range) [26]: (0.12-1) μg/mL

KKTHTKTKKTHTKTKKTHTK [SEQ ID NO: 13]
Dose Normalized Cmax [30]: 5000 and 7000 and 6000
